Experimental data: patent US10011814B2, “Salt formulations for the fermentation of marine microorganisms” (Triphase Research and Development I Corp., priority 2006, dated 2018)

Key:
[1] = system: Salinispora tropica NPS021184; assay: Production of Salinosporamide A and analogs in 42 L fermentor culture; titers by HPLC; details: for decrease of production: Ex.3, chemically defined salt formulation replacing INSTANT OCEAN, with cobalt
Description: Seed cultures were prepared by inoculating frozen stock of Salinispora tropica NPS021184 into seed medium. For 10 mL seed medium in a 50-mL culture tube, one frozen stock (˜1.5 mL) was used for inoculation. For 100 mL seed medium in a 500-mL Erlenmeyer flask, two frozen stocks (˜3 mL total) were used for inoculation.
The first seed cultures (either 10 mL medium in a 50-mL tube or 100 mL medium in a 500-mL Erlenmeyer flask) were incubated at 250 rpm and 28° C. for 3 to 4 days before inoculating (5% inoculum) into second seed medium with the same salt composition as used for the first seed cultures. After incubating at 250 rpm and 28° C. for 2 days, the second seed cultures (5% inoculum) were inoculated into an additional third seed culture (400 mL medium in 2.8 L Fembach flask) with the same medium, salt composition and incubation time as the second seed cultures, before inoculating into production media in the fermentor (26 L medium in a 42 L B. Braun Biostat-C fermentor).
The production medium was then supplemented with either INSTANT OCEAN® commercial salt formulation or a chemically defined salt formulation based on the salt supplement used in the seed stages. The chemically defined salt formulation consisted of: […]
The production medium for fermentation was also supplemented with CoCl2.6H2O at a concentration of 52 μg/L. No CoCl2.6H2O was added to the production medium in control samples.
3.5 mL of the fermentation culture was mixed with equal volume of EtOAc in an extraction tube to extract the various metabolites from the production culture.
The mixture was shaken for 1 hr. An aliquot of the extract (1 mL) was removed and dried under a stream of nitrogen. The dried extract was stored at −20° C. freezer before HPLC analysis. The dried extract was resuspended in 320 μL DMSO and injected into HPLC using the 00TF14 method for analysis.
The production of Salinosporamide A, NPI-0047 and NPI-2065 was monitored by Agilent HP1100 HPLC using an ACE C-18 reversed-phase column (4.6×150 mm), and solvent system consisting of water (0.01% TFA) as solvent A and acetonitrile (0.01% TFA) as solvent B. The elution was started at 100% solvent A for 1 min, 100% solvent A to 35% solvent A gradient in 7 min, held at 35% solvent A for 11 min, 35% solvent A to 100% solvent B in 8 min and held at 100% solvent B for 9 min at a flow rate of 1.5 mL/min with the detector wavelength set at 210 nm and column temperature 35° C.
The first seed culture (100 mL medium) in a 500-mL Erlenmeyer flask was incubated at 250 rpm and 28° C. for 72 hours. 20 mL of the first seed culture was inoculated into second seed culture (400 ml medium) in a 2.8 L Fernbach flask with the same medium as the first seed culture. The second seed culture was incubated at 250 rpm and 28° C. for 48 hours. 200 mL of the […] was inoculated into a B. Braun B-Plus 5 L fermentor containing 4 L third seed medium with the same composition as the first and second seed medium. The thirds seed fermentor culture was incubated at 300 rpm and 28° C. with the airflow rate of 2 L/min for 36 hours. 1.5 L of the third seed culture was inoculated into 26 L production medium in a 42 L B. Braun Biostat-C fermentor.
The production fermentor culture was operated at 200 rpm and 28° C. with the airflow rate of 13 L/min.
3.5 mL of the fermentation culture was mixed with equal volume of EtOAc in an extraction tube to extract the various metabolites from the production culture. The mixture was shaken on the shaker for 1 hr. An aliquot of the extract (1 mL) was removed and dried under a stream of nitrogen. The dried extract was stored at −20° C. freezer before HPLC analysis. The dried extract was resuspended in 320 μL DMSO and injected into HPLC using the 00TF14 method for analysis.
Alternatively, the production of the compounds can be achieved in a 42 L fermentor system using strain NPS21184. […]

[2] = system: Salinispora tropica CNB476; assay: Production of Salinosporamide A and analogs in shake flask culture; titers by HPLC; details: Ex.21, CoCl2·6H2O 208 μg/L seed, 52 μg/L production vs no cobalt
Description: (§1) To determine the production profile of Low Sodium Frozen Stocks cultures of CNB440, CNB476 and NPS21184 grown up in low sodium production medium, 5 mL each of the 48-hour second seed culture samples of CNB476 and NPS21184 was used to inoculate 100 mL of production medium having the same composition as the seed medium in a 500-mL Erlenmeyer flasks. For CNB440, 5 mL of the 72 hour second seed culture sample was used to inoculate 100 mL of production medium having the same composition as the seed medium in a 500-mL Erlenmeyer flasks. The production cultures were incubated at 250 rpm and 28° C.
(§2) 3.5 mL of the fermentation culture was mixed with equal volume of EtOAc in an extraction tube to extract the various metabolites from the production culture. The mixture was shaken on the shaker for 1 hr. […]
(§3) The production of Salinosporamide A, NPI-0047 and NPI-2065 was monitored by Agilent HP1100 HPLC using an ACE C-18 reversed-phase column (4.6×150 mm), and solvent system consisting of water (0.01% TFA) as solvent A and acetonitrile (0.01% TFA) as solvent B. The elution was started at 100% solvent A for 1 min, 100% solvent A to 35% solvent A gradient in 7 min, held at 35% solvent A for 11 min, 35% solvent A to 100% solvent B in 8 min and held at 100% solvent B for 9 min at a flow rate of 1.5 mL/min with the detector wavelength set at 210 nm and column temperature 35° C. […]

[3] = system: Salinispora tropica CNB440; assay: as above; details: Ex.21, CoCl2·6H2O 208 μg/L seed, 52 μg/L production vs no cobalt
Description: as §1, §2, §3

[4] = Ex.3, cobalt in seed and production media with INSTANT OCEAN vs no cobalt

Row | Compound | decrease of production [1] [%] | increase of production, on average [1, 4] [%] | decrease of production, on average [1, 4] [%] | reduction of production by cobalt [2] [%] | reduction of production by cobalt [3] [%]
1 | C[C@@]12OC(=O)[C@]1([C@@H](O)[C@@H]1C=CCCC1)NC(=O)[C@@H]2CCCl [Salinosporamide A] | 8.7 | 14.3 | – | – | –
2 | C[C@@]12OC(=O)[C@]1([C@@H](O)[C@@H]1C=CCCC1)NC(=O)[C@H]2CCCl [NPI-2065] | 7.9 | – | 23.2 | – | –
3 | CC[C@H]1C(=O)N[C@@]2([C@@H](O)[C@@H]3C=CCCC3)C(=O)O[C@@]12C [NPI-0047, Salinosporamide B] | 47.3 | – | 48.1 | 52 | 48
